Like-named read-outs stand apart in the source and are kept apart here.
Assay type: in vivo, Sprague Dawley male rats
Conditions: rat, in vivo, ip
Method: The ability of a compound of the invention to treat anemia associated with post-ischemic acute renal failure was assayed using a procedure described by Vaziri et al. (1994, Am J Physiol 266(3 Pt 2):[…]-6.) Fifteen Sprague Dawley male rats (280-300 g) were obtained from Charles River Laboratories. On day 0, rats were treated by intraperitoneal injection with a single dose of saline (control; n=3) at 8 ml/kg, or cisplatin (CP; Bedford Laboratories, Bedford Ohio) at either 7 mg/kg (7 ml/kg; n=6) or 10 mg/kg (10 ml/kg; n=6). Blood samples (0.2 ml) were collected on days 5, 9, and 16 as follows. […] Blood samples were processed for hematocrit as described above to determine the degree of anemia produced in each animal. […] Blood samples (0.5 ml) were collected as described above immediately prior to treatment and 4 days after treatment initiation. Blood samples were analyzed for CBC and reticulocyte counts as described above. On day 9 after initiation of oral treatment, a blood sample (0.1 ml) was collected and processed for hematocrit as described above.

Compound: N.N.[Cl][Pt][Cl] [CP, cisplatin, reference compound]
- reduction of hematocrit relative to controls (7 mg/kg): 14%
- reduction of hematocrit relative to controls (10 mg/kg): 22%

— patent US20130203805A1, “Methods for treating anemia using inhibitors of hypoxia-inducible factor (HIF) hydroxylase” (FIBROGEN, INC., priority 2001, published 2013)
